Laboratory results reported in PubChem BioAssay (NCI).
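Exposure lasted 48 hours, with cells grown in 96-well plates and compounds tested at five concentrations. TGI is the concentration that stops growth completely.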

Tests used:
Test in all cases: NCI-60 cell line screen, 48 h
SF-268 CNS = system: SF-268 CNS
OVCAR-4 ovarian = system: OVCAR-4 ovarian
SF-295 CNS = system: SF-295 CNS
OVCAR-3 ovarian = system: OVCAR-3 ovarian
786-0 renal = system: 786-0 renal
HT29 colon = system: HT29 colon
A549 NSCLC = system: A549 NSCLC
MDA-N = system: MDA-N
OVCAR-8 ovarian = system: OVCAR-8 ovarian
M14 melanoma = system: M14 melanoma
MALME-3M melanoma = system: MALME-3M melanoma
NCI-H23 lung = system: NCI-H23 lung
UO-31 renal = system: UO-31 renal
MCF7 breast = system: MCF7 breast
PC-3 prostate = system: PC-3 prostate
SN12C renal = system: SN12C renal
A498 renal = system: A498 renal
K-562 leukemia = system: K-562 leukemia
ACHN renal = system: ACHN renal
NCI-H522 lung = system: NCI-H522 lung
CAKI-1 renal = system: CAKI-1 renal
HCT-15 colon = system: HCT-15 colon
UACC-257 melanoma = system: UACC-257 melanoma
HCT-116 colon = system: HCT-116 colon
MDA-MB-231 breast = system: MDA-MB-231 breast
SK-MEL-5 melanoma = system: SK-MEL-5 melanoma
EKVX NSCLC = system: EKVX NSCLC
U251 CNS = system: U251 CNS
HS 578T breast = system: HS 578T breast
NCI-H226 lung = system: NCI-H226 lung
NCI/ADR-RES ovarian = system: NCI/ADR-RES ovarian
SNB-19 CNS = system: SNB-19 CNS
HOP-62 NSCLC = system: HOP-62 NSCLC
COLO 205 colon = system: COLO 205 colon
OVCAR-5 ovarian = system: OVCAR-5 ovarian
SK-MEL-28 melanoma = system: SK-MEL-28 melanoma
TK-10 renal = system: TK-10 renal
UACC-62 melanoma = system: UACC-62 melanoma
MDA-MB-435 = system: MDA-MB-435
HCC-2998 colon = system: HCC-2998 colon
LOX IMVI melanoma = system: LOX IMVI melanoma
DU-145 prostate = system: DU-145 prostate
CCRF-CEM leukemia = system: CCRF-CEM leukemia
RXF 393 renal = system: RXF 393 renal
MOLT-4 leukemia = system: MOLT-4 leukemia
SW-620 colon = system: SW-620 colon
T-47D breast = system: T-47D breast
KM12 colon = system: KM12 colon
SK-MEL-2 melanoma = system: SK-MEL-2 melanoma
IGROV1 ovarian = system: IGROV1 ovarian
SK-OV-3 ovarian = system: SK-OV-3 ovarian
RPMI-8226 leukemia = system: RPMI-8226 leukemia
BT-549 breast = system: BT-549 breast
NCI-H460 lung = system: NCI-H460 lung
HOP-92 NSCLC = system: HOP-92 NSCLC
SNB-75 CNS = system: SNB-75 CNS
HL-60(TB) leukemia = system: HL-60(TB) leukemia
SF-539 CNS = system: SF-539 CNS
SR leukemia = system: SR leukemia

Measured: TGI

O=C(O)c1cccc(CN2CCCCC2)c1
not listed: HOP-92 NSCLC | SNB-75 CNS | HL-60(TB) leukemia | SF-539 CNS | SR leukemia
> 100 µM: all other assays above

C[C@]12CC[C@@H]3c4ccc(OS(N)(=O)=O)cc4CC[C@H]3[C@@H]1CCC2=O
38.8 µM: SK-MEL-5 melanoma
not listed: PC-3 prostate | NCI-H522 lung | MOLT-4 leukemia | SR leukemia
> 100 µM: all other assays above

COc1cc(C2CC(C)(N3CCCC3)Oc3cc4c(cc32)OCO4)cc(OC)c1OC (stereo not given)
> 49.3 µM: MOLT-4 leukemia
0.492 µM: HT29 colon
10.9 µM: K-562 leukemia
21.9 µM: MDA-MB-231 breast
> 82.4 µM: NCI-H226 lung
17.9 µM: MCF7 breast
3.55 µM: PC-3 prostate
73.8 µM: SK-MEL-28 melanoma
15 µM: LOX IMVI melanoma
0.468 µM: RXF 393 renal
87.7 µM: BT-549 breast
> 51.2 µM: IGROV1 ovarian
2.19 µM: NCI-H522 lung
17 µM: 786-0 renal
> 50.7 µM: MALME-3M melanoma
> 44.7 µM: OVCAR-8 ovarian
0.0552 µM: MDA-N
43.7 µM: SN12C renal
3.5 µM: NCI-H460 lung
> 49.6 µM: NCI-H23 lung
32.5 µM: UACC-257 melanoma
0.603 µM: SF-539 CNS
0.0909 µM: SF-295 CNS
6.14 µM: HCC-2998 colon
> 64 µM: TK-10 renal
39 µM: SW-620 colon
6.12 µM: A498 renal
> 87.6 µM: SF-268 CNS
16.4 µM: U251 CNS
45 µM: OVCAR-3 ovarian
not listed: HCT-15 colon | SK-MEL-5 melanoma | UACC-62 melanoma | MDA-MB-435 | SK-OV-3 ovarian | RPMI-8226 leukemia | SNB-75 CNS | HL-60(TB) leukemia
> 100 µM: all other assays above
